# Measurements reported in patent US4017540A, “Method of use, composition, and compounds” (The Upjohn Company, priority 1972, dated 1977).
# “Also recorded” adds a separate entry of the source.
# Columns and labels:
# Conditions in all cases: in vivo
# insects and mites = experiment: insecticidal and miticidal activity (general)
# anorexigenic activity = experiment: anorexigenic activity
# parasitic worms = experiment: anthelmintic activity (general; sheep)
smiles,measurement,setting,value
"O=[N+]([O-])c1ccc(NN=C(Cl)c2ccccc2)c([N+](=O)[O-])c1 [Benzoyl chloride (2,4-dinitrophenyl)hydrazone, reference compound]",insecticidal and miticidal activity,insects and mites,relatively inactive
"ClC(=NNc1cc(Cl)ccc1Cl)c1ccccc1 [benzoyl chloride (2,5-dichlorophenyl)hydrazone]",anorexigenic activity,anorexigenic activity,have anorexigenic activity
ClC(=NNc1ccccc1)c1ccccc1 [benzoyl chloride phenylhydrazone],anthelmintic activity,parasitic worms,effective against worms; also recorded: efficacious anthelmintic agents
